From the OligoGym collection
Oligonucleotides are given in HELM: sugar(base)linkage, 5' to 3'; d 2'-deoxyribose, r ribose, m 2'-O-methylribose, p phosphate. ss, as = sense and antisense strand

What follows are substances tested against UBE2N (assay: reporter assay of Huesken 2005). Conditions: siRNA.
Note: test concentration or dose not given here.

Point of comparison: “RNA1{r(G)p.r(A)p.r(A)p.r(G)p.r(C)p.r(C)p.r(C)p.r(A)p.r(A)p.r(G)p.r(C)p.r(C)p.r(A)p.r(U)p.r(A)p.r(G)p.r(A)p.r(A)p.r(A)p.d(T)p.d(T)}|RNA2{r(U)p.r(U)p.r(U)p.r(C)p.r(U)p.r(A)p.r(U)p.r(G)p.r(G)p.r(C)p.r(U)p.r(U)p.r(G)p.r(G)p.r(G)p.r(C)p.r(U)p.r(U)p.r(C)p.d(G)p.d(T)}$$$RNA1{StrandType:ss}|RNA2{StrandType:as}$”, normalised inhibition (eCFP-eYFP dual reporter) 90.3%. Against it:
- RNA1{r(C)p.r(G)p.r(U)p.r(U)p.r(U)p.r(C)p.r(A)p.r(U)p.r(G)p.r(A)p.r(C)p.r(C)p.r(A)p.r(A)p.r(A)p.r(A)p.r(U)p.r(U)p.r(U)p.d(T)p.d(T)}|RNA2{r(A)p.r(A)p.r(A)p.r(U)p.r(U)p.r(U)p.r(U)p.r(G)p.r(G)p.r(U)p.r(C)p.r(A)p.r(U)p.r(G)p.r(A)p.r(A)p.r(A)p.r(C)p.r(G)p.d(T)p.d(A)}$$$RNA1{StrandType:ss}|RNA2{StrandType:as}$ — higher, 100%
- RNA1{r(C)p.r(U)p.r(A)p.r(A)p.r(A)p.r(G)p.r(U)p.r(A)p.r(C)p.r(G)p.r(U)p.r(U)p.r(U)p.r(C)p.r(A)p.r(U)p.r(G)p.r(A)p.r(C)p.d(T)p.d(T)}|RNA2{r(G)p.r(U)p.r(C)p.r(A)p.r(U)p.r(G)p.r(A)p.r(A)p.r(A)p.r(C)p.r(G)p.r(U)p.r(A)p.r(C)p.r(U)p.r(U)p.r(U)p.r(A)p.r(G)p.d(G)p.d(G)}$$$RNA1{StrandType:ss}|RNA2{StrandType:as}$ — lower, 79.5%
- RNA1{r(C)p.r(U)p.r(A)p.r(G)p.r(A)p.r(U)p.r(A)p.r(U)p.r(U)p.r(U)p.r(U)p.r(G)p.r(A)p.r(A)p.r(A)p.r(G)p.r(A)p.r(U)p.r(A)p.d(T)p.d(T)}|RNA2{r(U)p.r(A)p.r(U)p.r(C)p.r(U)p.r(U)p.r(U)p.r(C)p.r(A)p.r(A)p.r(A)p.r(A)p.r(U)p.r(A)p.r(U)p.r(C)p.r(U)p.r(A)p.r(G)p.d(A)p.d(C)}$$$RNA1{StrandType:ss}|RNA2{StrandType:as}$ — lower, 85.6%
- RNA1{r(C)p.r(U)p.r(C)p.r(C)p.r(C)p.r(A)p.r(A)p.r(U)p.r(C)p.r(C)p.r(A)p.r(G)p.r(A)p.r(U)p.r(G)p.r(A)p.r(U)p.r(C)p.r(C)p.d(T)p.d(T)}|RNA2{r(G)p.r(G)p.r(A)p.r(U)p.r(C)p.r(A)p.r(U)p.r(C)p.r(U)p.r(G)p.r(G)p.r(A)p.r(U)p.r(U)p.r(G)p.r(G)p.r(G)p.r(A)p.r(G)p.d(C)p.d(A)}$$$RNA1{StrandType:ss}|RNA2{StrandType:as}$ — lower, 58.7%
- RNA1{r(C)p.r(U)p.r(U)p.r(G)p.r(A)p.r(A)p.r(C)p.r(U)p.r(A)p.r(U)p.r(U)p.r(C)p.r(C)p.r(U)p.r(U)p.r(C)p.r(C)p.r(A)p.r(G)p.d(T)p.d(T)}|RNA2{r(C)p.r(U)p.r(G)p.r(G)p.r(A)p.r(A)p.r(G)p.r(G)p.r(A)p.r(A)p.r(U)p.r(A)p.r(G)p.r(U)p.r(U)p.r(C)p.r(A)p.r(A)p.r(G)p.d(T)p.d(T)}$$$RNA1{StrandType:ss}|RNA2{StrandType:as}$ — lower, 84.8%
- RNA1{r(C)p.r(U)p.r(U)p.r(U)p.r(G)p.r(A)p.r(G)p.r(G)p.r(G)p.r(A)p.r(G)p.r(G)p.r(G)p.r(A)p.r(C)p.r(U)p.r(U)p.r(U)p.r(U)p.d(T)p.d(T)}|RNA2{r(A)p.r(A)p.r(A)p.r(A)p.r(G)p.r(U)p.r(C)p.r(C)p.r(C)p.r(U)p.r(C)p.r(C)p.r(C)p.r(U)p.r(C)p.r(A)p.r(A)p.r(A)p.r(G)p.d(G)p.d(G)}$$$RNA1{StrandType:ss}|RNA2{StrandType:as}$ — lower, 70.6%
- RNA1{r(G)p.r(A)p.r(A)p.r(A)p.r(C)p.r(A)p.r(G)p.r(C)p.r(U)p.r(A)p.r(G)p.r(A)p.r(G)p.r(C)p.r(A)p.r(U)p.r(G)p.r(G)p.r(A)p.d(T)p.d(T)}|RNA2{r(U)p.r(C)p.r(C)p.r(A)p.r(U)p.r(G)p.r(C)p.r(U)p.r(C)p.r(U)p.r(A)p.r(G)p.r(C)p.r(U)p.r(G)p.r(U)p.r(U)p.r(U)p.r(C)p.d(T)p.d(A)}$$$RNA1{StrandType:ss}|RNA2{StrandType:as}$ — higher, 100%
- RNA1{r(G)p.r(A)p.r(A)p.r(C)p.r(C)p.r(A)p.r(G)p.r(U)p.r(U)p.r(C)p.r(C)p.r(U)p.r(G)p.r(G)p.r(C)p.r(A)p.r(U)p.r(C)p.r(A)p.d(T)p.d(T)}|RNA2{r(U)p.r(G)p.r(A)p.r(U)p.r(G)p.r(C)p.r(C)p.r(A)p.r(G)p.r(G)p.r(A)p.r(A)p.r(C)p.r(U)p.r(G)p.r(G)p.r(U)p.r(U)p.r(C)p.d(T)p.d(G)}$$$RNA1{StrandType:ss}|RNA2{StrandType:as}$ — lower, 36%
- RNA1{r(G)p.r(A)p.r(A)p.r(C)p.r(U)p.r(A)p.r(U)p.r(U)p.r(C)p.r(C)p.r(U)p.r(U)p.r(C)p.r(C)p.r(A)p.r(G)p.r(A)p.r(A)p.r(G)p.d(T)p.d(T)}|RNA2{r(C)p.r(U)p.r(U)p.r(C)p.r(U)p.r(G)p.r(G)p.r(A)p.r(A)p.r(G)p.r(G)p.r(A)p.r(A)p.r(U)p.r(A)p.r(G)p.r(U)p.r(U)p.r(C)p.d(A)p.d(A)}$$$RNA1{StrandType:ss}|RNA2{StrandType:as}$ — lower, 87.5%
- RNA1{r(G)p.r(A)p.r(A)p.r(G)p.r(A)p.r(C)p.r(C)p.r(A)p.r(A)p.r(C)p.r(G)p.r(A)p.r(A)p.r(G)p.r(C)p.r(C)p.r(C)p.r(A)p.r(A)p.d(T)p.d(T)}|RNA2{r(U)p.r(U)p.r(G)p.r(G)p.r(G)p.r(C)p.r(U)p.r(U)p.r(C)p.r(G)p.r(U)p.r(U)p.r(G)p.r(G)p.r(U)p.r(C)p.r(U)p.r(U)p.r(C)p.d(C)p.d(A)}$$$RNA1{StrandType:ss}|RNA2{StrandType:as}$ — lower, 85.4%
- RNA1{r(G)p.r(A)p.r(U)p.r(C)p.r(C)p.r(A)p.r(U)p.r(U)p.r(A)p.r(G)p.r(C)p.r(A)p.r(A)p.r(A)p.r(U)p.r(G)p.r(A)p.r(U)p.r(G)p.d(T)p.d(T)}|RNA2{r(C)p.r(A)p.r(U)p.r(C)p.r(A)p.r(U)p.r(U)p.r(U)p.r(G)p.r(C)p.r(U)p.r(A)p.r(A)p.r(U)p.r(G)p.r(G)p.r(A)p.r(U)p.r(C)p.d(A)p.d(T)}$$$RNA1{StrandType:ss}|RNA2{StrandType:as}$ — lower, 61.3%
- RNA1{r(G)p.r(C)p.r(A)p.r(A)p.r(A)p.r(U)p.r(G)p.r(A)p.r(U)p.r(G)p.r(U)p.r(A)p.r(G)p.r(C)p.r(G)p.r(G)p.r(A)p.r(G)p.r(C)p.d(T)p.d(T)}|RNA2{r(G)p.r(C)p.r(U)p.r(C)p.r(C)p.r(G)p.r(C)p.r(U)p.r(A)p.r(C)p.r(A)p.r(U)p.r(C)p.r(A)p.r(U)p.r(U)p.r(U)p.r(G)p.r(C)p.d(T)p.d(A)}$$$RNA1{StrandType:ss}|RNA2{StrandType:as}$ — lower, 49.8%
- RNA1{r(G)p.r(C)p.r(A)p.r(G)p.r(A)p.r(U)p.r(C)p.r(C)p.r(G)p.r(C)p.r(A)p.r(C)p.r(A)p.r(G)p.r(U)p.r(U)p.r(C)p.r(U)p.r(G)p.d(T)p.d(T)}|RNA2{r(C)p.r(A)p.r(G)p.r(A)p.r(A)p.r(C)p.r(U)p.r(G)p.r(U)p.r(G)p.r(C)p.r(G)p.r(G)p.r(A)p.r(U)p.r(C)p.r(U)p.r(G)p.r(C)p.d(A)p.d(G)}$$$RNA1{StrandType:ss}|RNA2{StrandType:as}$ — lower, 86.3%
